Earlier results, collected in patent publication US20100310474A1, “PROTEIN CAGES FOR THE DELIVERY OF MEDICAL IMAGING AND THERAPEUTIC AGENTS” (MONTANA STATE UNIVERSITY, priority 2002, published 2010).

Experiments:
tumor cells = conditions: free peptide
tumor angiogenesis = conditions: mice
[1] = system: experimental tumor lung colonization; conditions: free peptide
platlets and neutrophils = conditions: cells bearing 67 kDa LBP

CDPGYIGSRC [peptide 11]
invasion of basement membranes by tumor cells (tumor cells): effectively blocks | tumor angiogenesis (tumor angiogenesis): inhibits | experimental tumor lung colonization [1]: reduces | toxic effect on platelets and neutrophils (platlets and neutrophils): no toxic effect

Cc1ccc(C(=O)Nc2ccc(S(=O)(=O)O)c3cc(S(=O)(=O)O)cc(S(=O)(=O)O)c23)cc1NC(=O)c1cccc(NC(=O)Nc2cccc(C(=O)Nc3cc(C(=O)Nc4ccc(S(=O)(=O)O)c5cc(S(=O)(=O)O)cc(S(=O)(=O)O)c45)ccc3C)c2)c1 [suramin]
cytotoxic effects on tumor cells (tumor cells in culture): cytotoxic effects
